Source: publication PMC4774911, “Biochemical Screening of Five Protein Kinases from Plasmodium falciparum against 14,000 Cell-Active Compounds” (PLoS ONE, 2016)
Values joined by “and” are separate entries in the source; they are usually repeats but may differ in a detail not shown here. Equal entries are not always repeated. Where two headings read alike, the source gives them in different places.

Columns and labels:
[1] = target: T1, Plasmodium falciparum calcium-dependent protein kinase 1 (CDPK1) (Plasmodium falciparum, UniProt P62344); test: CDPK1 Kinase-Glo ATP-consumption screen and dose-response; assay type: biochemical; settings: hits below 1 uM; read-out: CDPK1 IC50
T1 construct: 6-Histidine (N); made in house
T1 sequence (P62344 whole entry): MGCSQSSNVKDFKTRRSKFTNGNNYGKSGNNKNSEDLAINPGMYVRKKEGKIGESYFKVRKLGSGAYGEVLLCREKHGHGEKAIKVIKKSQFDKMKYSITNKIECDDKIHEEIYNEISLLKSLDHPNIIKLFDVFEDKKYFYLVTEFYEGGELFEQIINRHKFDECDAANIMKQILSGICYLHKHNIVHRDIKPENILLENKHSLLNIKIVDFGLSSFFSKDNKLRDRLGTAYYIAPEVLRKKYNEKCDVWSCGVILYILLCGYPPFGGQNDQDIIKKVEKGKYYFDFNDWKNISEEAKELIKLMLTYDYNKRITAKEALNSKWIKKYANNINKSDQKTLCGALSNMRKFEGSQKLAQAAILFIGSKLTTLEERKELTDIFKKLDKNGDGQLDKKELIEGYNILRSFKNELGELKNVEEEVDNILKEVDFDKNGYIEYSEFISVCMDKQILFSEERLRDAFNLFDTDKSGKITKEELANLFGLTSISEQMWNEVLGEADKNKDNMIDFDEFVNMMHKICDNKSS
Outline: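 Single-point testing used 1 μM final compound, then dose-response, against CDPK4 and CDPK1 with Syntide-2 (40 μM) as substrate. After 90 min, reactions were halted by 5 mM EGTA, and kinase activity was inferred from depleted ATP via Kinase-Glo luminescence.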

[2] = tested on: human kinases in K562 cell extract; test: Kinobead competition assay, kinome-wide summary; assay type: binding; settings: for Human kinases with apparent pKd ≥ 4.7 (N = 2) / Human kinases with apparent pKd ≥ 6 (N = 2): K562 extract, number of kinases, 20 μM-0.03 μM compound
Experimental: Kinobeads were prepared as described.

HepG2 cells = settings: cited from earlier work
STK17A = target: T2, STK17A (Homo sapiens, UniProt Q9UEE5); test: biochemical; parameters: endogenous in cells; host or cells: K562 cell extract; species or system K562 (extract); replicate k of n = 2 (each experiment ID is one independent experiment; two experiment IDs per compound); settings: read-out: KDapp
T2 sequence (Q9UEE5 1-414): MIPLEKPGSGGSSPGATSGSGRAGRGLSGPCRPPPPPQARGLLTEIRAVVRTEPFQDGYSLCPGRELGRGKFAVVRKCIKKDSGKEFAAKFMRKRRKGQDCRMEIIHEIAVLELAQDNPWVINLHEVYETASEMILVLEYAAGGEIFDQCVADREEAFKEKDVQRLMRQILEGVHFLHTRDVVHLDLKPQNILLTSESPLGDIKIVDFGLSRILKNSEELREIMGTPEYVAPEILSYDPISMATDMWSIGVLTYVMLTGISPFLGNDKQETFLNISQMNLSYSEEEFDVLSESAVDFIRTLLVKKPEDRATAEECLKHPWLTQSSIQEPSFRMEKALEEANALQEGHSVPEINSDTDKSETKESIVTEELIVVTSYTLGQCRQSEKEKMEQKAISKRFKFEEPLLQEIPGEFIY

MAP4K5 = MAP4K5 (Homo sapiens, UniProt Q9Y4K4); test: biochemical; parameters: species or system K562 (extract); replicate k of n = 2 (each experiment ID is one independent experiment; two experiment IDs per compound); settings: read-out: KDapp
Sequence of MAP4K5 (Q9Y4K4 whole entry): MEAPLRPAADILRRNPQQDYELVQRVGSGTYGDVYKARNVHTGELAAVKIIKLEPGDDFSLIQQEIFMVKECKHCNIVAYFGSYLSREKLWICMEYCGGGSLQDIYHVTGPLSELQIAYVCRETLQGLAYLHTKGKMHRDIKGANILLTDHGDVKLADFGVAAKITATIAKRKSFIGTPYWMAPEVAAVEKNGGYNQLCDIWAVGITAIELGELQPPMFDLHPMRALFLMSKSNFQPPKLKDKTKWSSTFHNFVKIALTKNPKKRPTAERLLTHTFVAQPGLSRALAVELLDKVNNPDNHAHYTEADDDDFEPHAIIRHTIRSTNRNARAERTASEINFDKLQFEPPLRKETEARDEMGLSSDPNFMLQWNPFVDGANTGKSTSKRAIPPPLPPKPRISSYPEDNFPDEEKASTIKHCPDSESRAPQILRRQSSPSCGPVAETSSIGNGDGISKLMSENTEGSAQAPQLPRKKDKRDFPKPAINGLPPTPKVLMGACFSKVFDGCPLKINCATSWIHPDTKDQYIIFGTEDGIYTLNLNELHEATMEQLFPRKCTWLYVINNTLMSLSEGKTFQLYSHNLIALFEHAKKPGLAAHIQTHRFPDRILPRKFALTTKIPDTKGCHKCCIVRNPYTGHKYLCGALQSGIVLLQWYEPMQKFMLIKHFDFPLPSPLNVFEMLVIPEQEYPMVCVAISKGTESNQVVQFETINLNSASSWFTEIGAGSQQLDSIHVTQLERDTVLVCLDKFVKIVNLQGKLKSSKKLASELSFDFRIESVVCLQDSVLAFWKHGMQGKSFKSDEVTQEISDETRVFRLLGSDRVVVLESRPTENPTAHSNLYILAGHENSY

PKMYT1 = target: T3, PKMYT1 (Homo sapiens, UniProt Q99640); test: biochemical
T3 sequence (Q99640 1-499): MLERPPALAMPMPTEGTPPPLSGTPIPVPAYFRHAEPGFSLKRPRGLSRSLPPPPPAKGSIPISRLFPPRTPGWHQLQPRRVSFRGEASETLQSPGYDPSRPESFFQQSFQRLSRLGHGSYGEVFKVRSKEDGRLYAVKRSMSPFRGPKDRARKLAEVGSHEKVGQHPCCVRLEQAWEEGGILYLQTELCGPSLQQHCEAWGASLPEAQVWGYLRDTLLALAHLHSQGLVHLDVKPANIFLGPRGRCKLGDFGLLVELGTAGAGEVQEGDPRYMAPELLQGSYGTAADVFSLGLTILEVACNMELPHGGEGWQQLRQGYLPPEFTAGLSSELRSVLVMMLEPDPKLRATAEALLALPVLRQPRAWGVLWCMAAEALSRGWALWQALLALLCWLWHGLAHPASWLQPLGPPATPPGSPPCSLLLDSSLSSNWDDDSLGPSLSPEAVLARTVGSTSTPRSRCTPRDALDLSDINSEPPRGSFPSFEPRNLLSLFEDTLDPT

MARK3 = MARK3 (Homo sapiens, UniProt P27448); test: biochemical
Sequence of MARK3 (P27448 whole entry): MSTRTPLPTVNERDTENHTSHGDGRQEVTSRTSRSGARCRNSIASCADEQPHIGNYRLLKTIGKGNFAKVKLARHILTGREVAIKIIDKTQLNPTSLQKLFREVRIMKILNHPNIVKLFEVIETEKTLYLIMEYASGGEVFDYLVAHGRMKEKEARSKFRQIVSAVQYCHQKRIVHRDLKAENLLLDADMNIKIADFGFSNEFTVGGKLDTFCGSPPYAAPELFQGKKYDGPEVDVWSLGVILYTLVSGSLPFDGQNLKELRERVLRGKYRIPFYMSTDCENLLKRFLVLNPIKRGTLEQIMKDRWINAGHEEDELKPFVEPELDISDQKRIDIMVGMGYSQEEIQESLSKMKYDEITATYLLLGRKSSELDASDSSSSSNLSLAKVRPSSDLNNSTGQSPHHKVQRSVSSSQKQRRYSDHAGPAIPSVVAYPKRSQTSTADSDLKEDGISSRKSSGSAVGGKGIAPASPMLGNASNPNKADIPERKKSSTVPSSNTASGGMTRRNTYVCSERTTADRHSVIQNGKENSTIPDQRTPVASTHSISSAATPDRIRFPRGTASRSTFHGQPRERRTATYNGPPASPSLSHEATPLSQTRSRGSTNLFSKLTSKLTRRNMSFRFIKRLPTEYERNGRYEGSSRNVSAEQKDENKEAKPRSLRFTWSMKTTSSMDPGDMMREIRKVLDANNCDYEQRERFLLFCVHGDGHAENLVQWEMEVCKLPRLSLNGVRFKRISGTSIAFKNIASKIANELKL

CDK7 = CDK7 (Homo sapiens, UniProt P50613); test: biochemical
Sequence of CDK7 (P50613 whole entry): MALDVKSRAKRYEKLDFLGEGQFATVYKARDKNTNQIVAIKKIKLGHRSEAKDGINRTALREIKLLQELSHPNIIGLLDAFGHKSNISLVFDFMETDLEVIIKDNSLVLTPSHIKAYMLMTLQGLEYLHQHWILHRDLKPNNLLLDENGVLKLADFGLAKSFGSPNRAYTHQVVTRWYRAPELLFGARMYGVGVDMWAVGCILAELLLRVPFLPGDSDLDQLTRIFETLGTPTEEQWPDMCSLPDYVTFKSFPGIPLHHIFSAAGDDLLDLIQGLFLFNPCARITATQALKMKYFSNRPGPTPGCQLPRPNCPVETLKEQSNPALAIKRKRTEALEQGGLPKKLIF

AXL = target: T4, AXL (Homo sapiens, UniProt P30530); test: biochemical
T4 sequence (P30530 1-894): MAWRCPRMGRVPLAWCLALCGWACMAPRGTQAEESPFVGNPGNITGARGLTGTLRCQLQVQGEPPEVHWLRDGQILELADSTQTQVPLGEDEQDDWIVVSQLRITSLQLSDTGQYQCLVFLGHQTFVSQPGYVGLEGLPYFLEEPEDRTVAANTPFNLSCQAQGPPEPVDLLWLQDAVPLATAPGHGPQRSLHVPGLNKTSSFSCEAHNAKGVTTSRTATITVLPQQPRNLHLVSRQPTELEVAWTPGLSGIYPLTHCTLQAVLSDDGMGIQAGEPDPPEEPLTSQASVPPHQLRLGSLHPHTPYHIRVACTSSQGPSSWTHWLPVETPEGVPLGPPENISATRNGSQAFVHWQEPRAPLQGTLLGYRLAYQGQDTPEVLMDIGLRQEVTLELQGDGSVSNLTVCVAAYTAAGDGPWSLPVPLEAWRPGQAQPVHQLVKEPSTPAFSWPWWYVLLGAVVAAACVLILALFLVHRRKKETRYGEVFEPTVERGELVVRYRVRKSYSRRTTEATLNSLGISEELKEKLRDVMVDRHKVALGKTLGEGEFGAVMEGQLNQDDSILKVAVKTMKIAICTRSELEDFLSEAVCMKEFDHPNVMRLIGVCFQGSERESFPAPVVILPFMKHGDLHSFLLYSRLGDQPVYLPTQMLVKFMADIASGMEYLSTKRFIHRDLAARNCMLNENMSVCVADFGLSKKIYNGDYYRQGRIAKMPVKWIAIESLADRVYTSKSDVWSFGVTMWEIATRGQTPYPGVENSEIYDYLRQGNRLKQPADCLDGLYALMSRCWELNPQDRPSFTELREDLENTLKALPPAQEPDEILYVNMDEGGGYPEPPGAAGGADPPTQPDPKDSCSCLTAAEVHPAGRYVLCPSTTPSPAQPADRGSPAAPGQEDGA

AAK1 = AAK1 (Homo sapiens, UniProt Q2M2I8); test: biochemical
Sequence of AAK1 (Q2M2I8 whole entry): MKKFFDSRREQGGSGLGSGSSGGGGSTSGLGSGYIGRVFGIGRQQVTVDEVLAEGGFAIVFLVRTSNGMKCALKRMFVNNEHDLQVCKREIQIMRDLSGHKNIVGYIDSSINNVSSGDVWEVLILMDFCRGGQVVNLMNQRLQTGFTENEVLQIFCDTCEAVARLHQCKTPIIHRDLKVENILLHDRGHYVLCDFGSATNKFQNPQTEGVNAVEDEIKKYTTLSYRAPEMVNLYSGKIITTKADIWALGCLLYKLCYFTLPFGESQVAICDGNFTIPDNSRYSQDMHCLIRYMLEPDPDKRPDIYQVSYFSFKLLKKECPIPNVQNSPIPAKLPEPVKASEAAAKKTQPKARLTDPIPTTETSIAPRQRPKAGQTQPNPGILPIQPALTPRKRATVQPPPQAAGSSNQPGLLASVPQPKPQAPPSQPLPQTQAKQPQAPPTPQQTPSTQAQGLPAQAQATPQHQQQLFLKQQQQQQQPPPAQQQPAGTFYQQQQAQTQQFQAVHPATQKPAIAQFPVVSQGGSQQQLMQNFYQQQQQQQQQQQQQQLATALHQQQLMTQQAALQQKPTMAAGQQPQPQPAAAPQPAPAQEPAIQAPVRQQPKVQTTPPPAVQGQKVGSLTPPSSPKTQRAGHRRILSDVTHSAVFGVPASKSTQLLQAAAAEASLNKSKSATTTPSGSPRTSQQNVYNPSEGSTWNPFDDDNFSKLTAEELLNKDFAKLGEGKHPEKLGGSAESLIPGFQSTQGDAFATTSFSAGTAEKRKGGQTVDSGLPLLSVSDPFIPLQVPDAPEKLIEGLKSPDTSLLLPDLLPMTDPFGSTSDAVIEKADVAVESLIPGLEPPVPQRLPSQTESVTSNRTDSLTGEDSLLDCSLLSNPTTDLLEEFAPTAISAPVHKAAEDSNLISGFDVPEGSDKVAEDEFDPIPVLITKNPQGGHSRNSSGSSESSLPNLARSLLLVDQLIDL

## CN1CCN(c2ccc(Nc3ncc(C#N)c(Nc4ccccc4C(N)=O)n3)cc2)CC1.Cl [TCMDC-134116]
[1]
  IC50: 12 nM
[2]; K562 extract kinobeads
  Share of human kinases tested bound with high affinity (pKd ≥ 6): two thirds
[2]
  Human kinases with apparent pKd ≥ 4.7 (N = 2): 126
  Human kinases with apparent pKd ≥ 6 (N = 2): 96
HepG2 cells
  Inhibition of HepG2 cell growth at 10 μM: 43%
HepG2 cells; HepG2, downloaded from ChEMBL, ref F.J. Gamo et al., Nature 2010
  PCT_INHIB_HEPG2: 43%
STK17A
  Kd: 109 nM
MAP4K5
  Kd: 185 nM and 192 nM
PKMYT1
  IC50: 1400 nM and 940 nM
MARK3
  IC50: 120 nM and 140 nM
CDK7
  IC50: 530 nM and 620 nM
AXL
  IC50: 500 nM and 550 nM
AAK1
  IC50: 190 nM

## Cl.NCC1(c2nc(-c3ccc(Cl)c(O)c3)c(-c3ccncc3)[nH]2)CCCCC1 [TCMDC-141154]
[1]
  IC50: 14 nM
[2]
  Human kinases with apparent pKd ≥ 4.7 (N = 2): 47
  Human kinases with apparent pKd ≥ 6 (N = 2): 26
HepG2 cells
  Inhibition of HepG2 cell growth at 10 μM: 48%
HepG2 cells; HepG2 cells, downloaded from ChEMBL ref F.J. Gamo et al., Nature 2010
  PCT_INHIB_HEPG2: 48
MAP4K5
  Kd: 3310 nM
PKMYT1
  IC50: > 20000 nM
MARK3
  IC50: > 20000 nM
CDK7
  IC50: > 20000 nM
AXL
  IC50: > 20000 nM
AAK1
  IC50: > 20000 nM

## CN(C)CC(O)COc1ccc(Nc2ncc([N+](=O)[O-])c(Nc3ccccc3O)n2)cc1.O=C(O)C(F)(F)F (centres unmarked) [TCMDC-141399]
[2]
  Human kinases with apparent pKd ≥ 4.7 (N = 2): 63
  Human kinases with apparent pKd ≥ 6 (N = 2): 24
HepG2 cells
  Inhibition of HepG2 cell growth at 10 μM: 47%
HepG2 cells; HepG2 cells, ref ChEMBL
  PCT_INHIB_HEPG2: 47
STK17A
  Kd: 2550 nM
MAP4K5
  Kd: 2850 nM
PKMYT1
  IC50: > 20000 nM
MARK3
  IC50: 10000 nM and 6600 nM
CDK7
  IC50: 1800 nM and 5800 nM
AXL
  IC50: > 20000 nM
AAK1
  IC50: > 20000 nM
